Measurements reported in publication PMC4873368 (Cancer research, 2016).

Legend:
[1] = tested on: human T cells; assay: ConA-induced T cell expansion from human PBMCs; assay type: cell-based; conditions: 168 h, read-out: EC50 T cells
[2] = tested on: A2780 cells; assay: A2780 cell proliferation screen; assay type: cell-based; conditions: Homo sapiens, A2780, 72 h, read-out: EC50 A2780
[3] = tested on: MEK; assay: Brpkp110 cells MEK signaling, Western blot; assay type: cell-based, mouse; conditions: 8 nM or 200 nM trametinib, 18 hr
[4] = tested on: human T cells; assay: Human T cell proliferation with aAPCs; assay type: cell-based; conditions: human PBMCs, 7 days
[5] = tested on: Brpkp110 tumors; conditions: trametinib 1.0 mg/kg oral gavage days 3-13, single intervention
[6] = tested on: human T cells; assay: Cytokine rescue of human T cell proliferation from trametinib; assay type: cell-based; conditions: aAPCs, 200 nM trametinib, 7 days; IL-2 20 U/ml, IL-7 2 ng/ml, IL-15 10 ng/ml, IL-21 100 ng/ml, IL-27 50 ng/ml, ALT-803 35.7 ng/ml
[7] = tested on: ERK1/2 phosphorylation; assay: TCR ligation of human CD8 T cells, Western blot p-ERK1/2; assay type: cell-based; conditions: within 10 minutes post-activation, trametinib 8 nM

EC50 [1] [nM] | EC50 [2] [nM] | Molecule | further results
> 25000 | > 25000 | C[C@]1(O)C[C@@H](c2nc(-c3ccc4ccc(-c5ccccc5)nc4c3)c3c(N)nccn32)C1 [OSI-906 (linsitinib), linsitinib] | 
13.6 | 78.3 | COc1ccc(-c2ccc3c(N4CCOC[C@@H]4C)nc(N4CCOC[C@@H]4C)nc3n2)cc1CO [AZD8055] | 
61 |  | CN(C)CC[C@H](CSc1ccccc1)Nc1ccc(S(=O)(=O)NC(=O)c2ccc(N3CCN(Cc4ccccc4-c4ccc(Cl)cc4)CC3)cc2)cc1[N+](=O)[O-] [ABT-737] | 
110 |  | CC(=O)c1c(C)c2cnc(Nc3ccc(N4CCNCC4)cn3)nc2n(C2CCCC2)c1=O [PD0332991 (palbociclib), palbociclib] | 
 | > 25000 | CCCS(=O)(=O)Nc1ccc(F)c(C(=O)c2c[nH]c3ncc(-c4ccc(Cl)cc4)cc23)c1F [PLX4032 (vemurafenib), vemurafenib] | 
 | > 25000 | COc1cc(Nc2ncc3c(n2)-c2ccc(Cl)cc2C(c2c(F)cccc2OC)=NC3)ccc1C(=O)O [MLN8237 (alisertib), alisertib] | 
2.4 | 21 | Cn1c(=O)n(-c2ccc(C(C)(C)C#N)cc2)c2c3cc(-c4cnc5ccccc5c4)ccc3ncc21 [BEZ235 (dactolisib), dactolisib] | 
0.237 | 155 | COc1ncc(-c2ccc3nccc(-c4ccnnc4)c3c2)cc1NS(=O)(=O)c1ccc(F)cc1F [GSK2126458 (omipalisib), omipalisib] | 
96 | 2350 | Cn1ncc(Cl)c1-c1cc(C(=O)N[C@H](CN)Cc2ccc(F)c(F)c2)oc1Cl [GSK2141795] | 
 | > 25000 | CN1CCN(CCOc2cc(OC3CCOCC3)c3c(Nc4c(Cl)ccc5c4OCO5)ncnc3c2)CC1 [AZD0530 (saracatinib), saracatinib] | 
 |  | IL-15: Recombinant human IL-15 (Novoprotein) | Rescue of human T cell proliferation in the presence of trametinib [6]: able to individually rescue the proliferation; Rescue of TCR-induced ERK1/2 phosphorylation from MEK inhibition [7]: can rescue
 | > 25000 | Cn1cnc2c(F)c(Nc3ccc(Br)cc3Cl)c(C(=O)NOCCO)cc21 [AZD6244 (selumetinib), selumetinib] | 
 |  | IL-21: human IL-21 cytokine | Rescue of human T cell proliferation in the presence of trametinib [6]: no significant rescuing effect
25 |  | Cc1[nH]c2ccccc2c1CCNCc1ccc(/C=C/C(=O)NO)cc1 [LBH589 (panobinostat), panobinostat] | 
 | > 25000 | Cc1cc([C@@H](C)Nc2ccccc2C(=O)O)c2nc(N3CCOCC3)cc(=O)n2c1 [AZD6482] | 
 | > 25000 | CCN(CCCOc1ccc2c(Nc3cc(CC(=O)Nc4cccc(F)c4)n[nH]3)ncnc2c1)CCOP(=O)(O)O [AZD1152 (barasertib), barasertib] | 
 | > 25000 | CN(C)C(=O)c1cc2cnc(Nc3ccc(N4CCNCC4)cn3)nc2n1C1CCCC1 [LEE011] | 
 |  | IL-7: mouse IL-7 (Peprotech) (protein, UniProt P10168 26-154, looked up) Interleukin-7: ECHIKDKEGKAYESVLMISIDELDKMTGTDSNCPNNEPNFFRKHVCDDTKEAAFLNRAARKLKQFLKMNISEEFNVHLLTVSQGTQTLVNCTSKEEKNVKEQKKNDACFLKRLLREIKTCWNKILKGSI | Rescue of human T cell proliferation in the presence of trametinib [6]: able to individually rescue the proliferation
 |  | IL-27: human IL-27 (eBioscience) (protein, UniProt Q8NEV9 29-243; Q14213 21-229, looked up) Interleukin-27 subunit alpha: FPRPPGRPQLSLQELRREFTVSLHLARKLLSEVRGQAHRFAESHLPGVNLYLLPLGEQLPDVSLTFQAWRRLSDPERLCFISTTLQPFHALLGGLGTQGRWTNMERMQLWAMRLDLRDLQRHLRFQVLAAGFNLPEEEEEEEEEEEEERKGLLPGALGSALQGPAQVSWPQLLSTYRLLHSLELVLSRAVRELLLLSKAGHSVWPLGFPTLSPQP Interleukin-27 subunit beta: RKGPPAALTLPRVQCRASRYPIAVDCSWTLPPAPNSTSPVSFIATYRLGMAARGHSWPCLQQTPTSTSCTITDVQLFSMAPYVLNVTAVHPWGSSSSFVPFITEHIIKPDPPEGVRLSPLAERQLQVQWEPPGSWPFPEIFSLKYWIRYKRQGAARFHRVGPIEATSFILRAVRPRARYYVQVAAQDLTDYGELSDWSLPATATMSLGK | Rescue of human T cell proliferation in the presence of trametinib [6]: no significant rescuing effect

Molecule | EC50 [1] [nM] | EC50 [2] [nM] | further results
CC(=O)Nc1cccc(-n2c(=O)n(C3CC3)c(=O)c3c(Nc4ccc(I)cc4F)n(C)c(=O)c(C)c32)c1 [GSK1120212 (trametinib), trametinib] |  | > 25000 | Signaling through MEK in Brpkp110 cells [3]: can be inhibited; Proliferation of human T cells in response to aAPC coated with agonistic CD3 and CD28 antibodies [4]: Comparable results; Growth of Brpkp110 tumors [5]: significantly reduced the growth
